Measurements as given in patent publication US10463712B2, “Human catestatin induces gut microbiota dysbiosis” (University of Manitoba, priority 2015, dated 2019).
Where no end group is shown, it is not given here.

Experiments:
[1] = tested on: Staphylococcus aureus, group A Streptococcus, Escherichia coli, Pseudomonas aeruginosa, Candida albicans, Aspergillus niger, A. fumigates, Trichophyton rubrum; settings: gram-positive and gram-negative bacteria, yeasts, filamentous fungi; cited from earlier work
[2] = tested on: colonic mucosa associated microbiota; test: Colonic mucosa associated microbiota composition by Illumina 16S rRNA sequencing after intrarectal CTS; type: in vivo, C57BL/6 mice; settings: for Mean percentage of sequence in total bacterial population: CTS 1.5 mg/kg/day i.r. 6 days
Description: (§1) Male C57BL/6 mice (7-9 weeks old) were purchased from Charles River (Canada) and maintained in the animal care facility at the University of Manitoba. The experimental protocol was approved by the University of Manitoba Animal Ethics Committee (10-073) and the research was conducted according to the Canadian Guidelines for Animal Research. Two groups of 4 and 6 mice were studied, one receiving the vehicle solution and one receiving intra-rectal Infusion of CTS for 6 days.
(§2) Saline (0.9%) was injected in the control group. Mice were anaesthetized using Isoflurane (Abbott, Toronto, Canada).
(§3) Samples were collected 6 days post-treatment induction, after euthanasia under isoflurane (Abbot) anaesthesia. The macroscopic score was determined on the sacrifice day based on stool consistency, rectal prolapse and rectal and colonic bleeding. On the day of sacrifice, a 250 mg fecal sample and a portion of the colon were collected in individual collector tubes from each animal. All samples were preserved at −80° C. before use.
(§4) Colons were opened and 50 mg of scrapings were taken from the inside. Samples were homogenized at room temperature, and genomic DNA was extracted from 250 mg fecal mass using a ZR fecal DNA Kit (Zymo Research Corp., Orange, Calif.). DNA extraction was performed using a Qiagen DNeasy blood & tissue kit (Qiagen corp, Valencia, USA). Both DNA extraction kits have a bead-beating step to lyse microbial cells. To match the concentration requirement for pyrosequencing, DNA quantity was determined using a Beckman DU/800 spectrophotometer (Beckman Coulter, Inc., Fullerton, Calif.). Genomic DNA was normalized to achieve a concentration of 20 ng/μL, and quality-checked by 16S rRNA gene using PCR amplification of 27F (5′-[…]-3′, SEQ ID NO:2) and 342R (5′-[…]-3′, SEQ ID NO:3)^58, 59. Amplicons were verified by agarose gel electrophoresis.
(§5) Library construction and Illumina sequencing were performed as described by Derakhshani et al.^60. Briefly, the […] region of the 16S rRNA gene was targeted for PCR amplification using modified F515/R806 primers^61. A reverse PCR primer was Indexed with 12-base Golay barcodes to allow for sample multiplexing. The PCR reaction for each sample was performed in duplicate and contained 1.0 μl of pre-normalized DNA, 1.0 μl each of forward and reverse primers (10 μM), 12 μl HPLC grade water (Fisher Scientific, ON, Canada) and 10 μl 5 Prime Hot MasterMix® (5 Prime, Inc., Gaithersburg, USA). Reactions consisted of an initial denaturing step at 94° C. for 3 min followed by 35 amplification cycles at 94° C. for 45 sec, 50° C. for 60 sec and 72° C. for 90 sec; this was followed by an extension step at 72° C. for 10 min in an Eppendorf Mastercycler® (Eppendorf, Hamburg, Germany). PCR products were then purified using a ZR-96 DNA Clean-up Kit™ (ZYMO Research, CA, USA) to remove primers, dNTPs and reaction components. The V4 library was then generated by pooling 200 ng of each sample, and quantified using Picogreen dsDNA (Invitrogen, NY, USA). This was followed by multiple dilution steps using pre-chilled hybridization buffer (HT1) (Illumina, CA, USA) to bring the pooled ampilcons to a final concentration of […], and the concentration was measured through optical density using a Qubit® 2.0 Fluorometer (Life technologies, ON, Canada). […] The 150 paired-end sequencing reaction was performed on a MISeq platform (Illumina, CA, USA) at the Gut Microbiome and Large Animal Biosecurity Laboratories, Department of Animal Science, University of Manitoba, Canada.
(§6) Bioinformatics analyses were performed as described by Derakhshani et al.^60. Briefly, the PANDAseq assembler^62 was used to merge overlapping paired-end Illumina fastq files. All the sequences with mismatches or ambiguous calls in the overlapping region were discarded. The output fastq file was then analyzed using downstream computational pipelines in the open source software package QIIME^63.

fecal microbiota = test: Fecal microbiota composition by Illumina 16S rRNA sequencing after intrarectal CTS; type: in vivo, C57BL/6 mice; settings: for Mean percentage of sequence in total bacterial population: CTS 1.5 mg/kg/day i.r. 6 days
Description: as §1, §2, §3, §4, §5, §6

induced colitis = settings: Rabbi et al. 2014; cited from earlier work
[3] = colonic mucosa associated samples
[4] = colonic mucosa associated samples, R^2=0.32, Q^2=0.242
[5] = fecal samples, R^2=0.94, Q^2=0.57

Sequence: SSMKLSFRARAYGFRGPGPQL [CTS]
- Antimicrobial activity in vitro [1]: effective
- Impact on Chao1, ACE, Shanon and Simpson indices of α-diversity ([2]; colonic mucosa associated bacterial community, vs control): no significant impact
- Effect on Verrucomicrobia [2, 3]: lowered
- Impact on relative abundance of bacterial phyla [2, 3]: no significant impact
- β-diversity (PERMANOVA): bacterial community vs controls [2, 3]: no significant change
- PLS-DA association with CTS treatment: Bacteroidales, Chitinophagaceae, Clostridlaceae, Clostridiales, Coriobacteriaceae, Pseudomonadaceae, Rikenellaceae, Ruminococcaceae, YS2 [2, 4]: positive association
- PLS-DA association with CTS treatment: genera Bifidobacterium and Stenotrophomonas [2, 4]: positive association
- Mean percentage of sequence in total bacterial population ([2]; phylum Acidobacteria, colonic mucosa associated samples): 0.03339%
- Mean percentage of sequence in total bacterial population ([2]; phylum Actinobacteria, colonic mucosa associated samples): 0.0724%
- Mean percentage of sequence in total bacterial population ([2]; phylum Armatimonadetes, colonic mucosa associated samples): 0.000879%
- Mean percentage of sequence in total bacterial population ([2]; phylum Bacteroidetes, colonic mucosa associated samples): 21.0435%
- Mean percentage of sequence in total bacterial population ([2]; phylum Chlamydiae, colonic mucosa associated samples): 0.00306%
- Mean percentage of sequence in total bacterial population ([2]; phylum Chlorobi, colonic mucosa associated samples): 0.002098%
- Mean percentage of sequence in total bacterial population ([2]; phylum Cyanobacteria, colonic mucosa associated samples): 0.1752%
- Mean percentage of sequence in total bacterial population ([2]; phylum Deferribacteres, colonic mucosa associated samples): 5.95%
- Mean percentage of sequence in total bacterial population ([2]; phylum Fibrobacteres, colonic mucosa associated samples): 0.01378%
- Mean percentage of sequence in total bacterial population ([2]; phylum Firmicutes, colonic mucosa associated samples): 12.52%
- Mean percentage of sequence in total bacterial population ([2]; phylum Lentisphaerae, colonic mucosa associated samples): 0.00457%
- Mean percentage of sequence in total bacterial population ([2]; phylum OD1, colonic mucosa associated samples): 0.004988%
- Mean percentage of sequence in total bacterial population ([2]; phylum OP3, colonic mucosa associated samples): 0.001604%
- Mean percentage of sequence in total bacterial population ([2]; phylum Planctomycetes, colonic mucosa associated samples): 0.004664%
- Mean percentage of sequence in total bacterial population ([2]; phylum Proteobacteria, colonic mucosa associated samples): 59.17%
- Mean percentage of sequence in total bacterial population ([2]; phylum Spirochaetes, colonic mucosa associated samples): 0.08226%
- Mean percentage of sequence in total bacterial population ([2]; phylum TM7, colonic mucosa associated samples): 0.007409%
- Mean percentage of sequence in total bacterial population ([2]; phylum Tenericutes, colonic mucosa associated samples): 0.3714%
- Mean percentage of sequence in total bacterial population ([2]; phylum Unclassified, colonic mucosa associated samples): 0.2915%
- Mean percentage of sequence in total bacterial population ([2]; phylum Verrucomicrobia, colonic mucosa associated samples): 0.1428%
- E. coli levels in the gut (fecal microbiota; CTS administration in vivo): not affected
- S. aureus levels in the gut (fecal microbiota; CTS administration in vivo): not affected
- Impact on Chao1, ACE, Shanon and Simpson indices of α-diversity (fecal microbiota; fecal bacterial community, vs control): no significant impact
- Effect on Verrucomicrobia (fecal microbiota; fecal samples): lowered
- β-diversity (unweighted UniFrac, PERMANOVA): bacterial community vs controls (fecal microbiota; fecal samples, P<0.05): clustered separately
- PLS-DA association with CTS treatment: Adlercreutzia, Allobaculum, Bacteroidaceae (Family), Clostridia (Class), Ruminococcaceae (Family) (fecal microbiota; [5]): negative association
- PLS-DA association with CTS treatment: Alpharoteobacteria (Class), Bacteroidales (Order), RF32 (Order), mitochondria (Family), YS2 (Order) (fecal microbiota; [5]): positive association
- PLS-DA association with CTS treatment: genera Prevotella, Bacteroides Ovatus, Bacteroides, Parabacteroides distarosis, Parabacteroides and Dorea (fecal microbiota; [5]): positively associated
- Change of Firmicutes population vs control (fecal microbiota; feces, P<0.001): significantly decreased
- Change of relative abundance of Bacteroidetes vs control (fecal microbiota; feces, P<0.05): significantly increased
- Prevotella, Bacteroides, and Parabacteroides populations (fecal microbiota; feces, lower taxonomical level): significant increase
- Mean percentage of sequence in total bacterial population (fecal microbiota; phylum Actinobacteria, fecal samples): 0.1877%
- Mean percentage of sequence in total bacterial population (fecal microbiota; phylum Bacteroidetes, fecal samples): 74%
- Mean percentage of sequence in total bacterial population (fecal microbiota; phylum Cyanobacteria, fecal samples): 0.152%
- Mean percentage of sequence in total bacterial population (fecal microbiota; phylum Deferribacteres, fecal samples): 1.144%
- Mean percentage of sequence in total bacterial population (fecal microbiota; phylum Fibrobacteres, fecal samples): 0.000541%
- Mean percentage of sequence in total bacterial population (fecal microbiota; phylum Firmicutes, fecal samples): 20.56%
- Mean percentage of sequence in total bacterial population (fecal microbiota; phylum Proteobacteria, fecal samples): 2.873%
- Mean percentage of sequence in total bacterial population (fecal microbiota; phylum TM7, fecal samples): 0.003098%
- Mean percentage of sequence in total bacterial population (fecal microbiota; phylum Tenericutes, fecal samples): 0.4046%
- Mean percentage of sequence in total bacterial population (fecal microbiota; phylum Unclassified, fecal samples): 0.4142%
- Mean percentage of sequence in total bacterial population (fecal microbiota; phylum Verrucomicrobia, fecal samples): 0.266%
- Severity of induced colitis (induced colitis): less severe induced colitis
